Key:
[1] = system: Myotonic Dystrophy 1 affected patient fibroblasts (Coriel GM04602; 1600 CTG repeats); assay: DM1 foci reduction assay (EC50 assay; CAG10-Cy3 FISH, foci per nucleus); format: cell-based; settings: Homo sapiens, Fibroblast; DM1 patient fibroblasts, 48 h treatment, foci per nucleus; read-out: DM1 EC50, 48 h
How it was run: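 GM04602 DM1 patient fibroblasts (1600 CTG repeats) seeded 24 h, then treated 48 h at 37 °C with an 8-point 1:3 dose series from 3 μM. Cells PFA-fixed, ethanol-permeabilized and hybridized overnight with 5 nM CAG10-Cy3 probe, DAPI counterstained. Imaged at 20×, 4 fields per well, as average foci per nucleus.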

[2] = system: F35T cells; assay: Foci reduction in FECD (CAG10-Cy3 FISH, foci per nucleus); format: cell-based; settings: F35T cells, 48 h treatment, foci per nucleus; read-out: FECD EC50, 48 h
How it was run: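 F35T cells, 5000 per well, were treated for 48 h at 37 °C, 5% CO2 in an 8-point dose response. Cells were then fixed in 4% PFA, permeabilized in 70% ethanol and hybridized overnight at 37 °C with a CAG10-Cy3 probe in 30% formamide/2×SSC. After DAPI staining, imaging gave foci per nucleus.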

| SMILES | EC50 [1] | EC50 [2] |
| --- | --- | --- |
| CN(CCCNC(=O)c1cccc(C(=O)OC(C)(C)C)c1)CCCNC(=O)c1cc(NC(=O)CCNC(=O)c2nc(NC(=O)CCCNC(=O)c3cc(NC(=O)c4nc(NC(=O)CCNC(=O)c5cc(NC(=O)c6nccn6C)cn5C)cn4C)cn3CCCCCCN=[N+]=[N-])cn2C)cn1C [Compound B-359] | > 1000 nM | > 1000 nM |
| CNC(=O)c1nc(NC(=O)c2cc(NC(=O)CCNC(=O)c3nc(NC(=O)CCCNC(=O)c4cc(NC(=O)c5nc(NC(=O)CCNC(=O)c6cc(NC(=O)c7nccn7C)cn6C)cn5C)cn4C)cn3C)cn2C)cn1C [Compound B-310] | < 100 nM | < 100 nM |
| COC(=O)c1ccc(C#CCNCCCNC(=O)c2nc(NC(=O)c3cc(NC(=O)CCNC(=O)c4nc(NC(=O)CCCNC(=O)c5cc(NC(=O)c6nc(NC(=O)CCNC(=O)c7cc(NC(=O)c8nccn8C)cn7C)cn6C)cn5C)cn4C)cn3C)cn2C)cc1 [Compound B-362] | < 100 nM | < 100 nM |
| CCCNC(=O)CCNC(=O)c1nc(NC(=O)c2cc(NC(=O)CCNC(=O)c3nc(NC(=O)CCCNC(=O)c4cc(NC(=O)c5nc(NC(=O)CCNC(=O)c6cc(NC(=O)c7nccn7C)cn6C)cn5C)cn4CCCOCCNC(C)=O)cn3C)cn2C)cn1C [Compound B-304] | < 100 nM | < 100 nM |
| Cn1cc(NC(=O)c2nc(NC(=O)CCNC(=O)c3cc(NC(=O)c4nccn4C)cn3C)cn2C)cc1C(=O)NCCCC(=O)Nc1cn(C)c(C(=O)NCCC(=O)Nc2cc(C(=O)Nc3cn(C)c(C(=O)NCCC(=O)N4CCC(C5CN(C(=O)OC(C)(C)C)C5)CC4)n3)n(C)c2)n1 [Compound B-193] | < 100 nM | < 100 nM |
| CCOC(=O)c1nc(NC(=O)c2cc(NC(=O)CCNC(=O)c3nc(NC(=O)CCCNC(=O)c4cc(NC(=O)c5nc(NC(=O)CCNC(=O)c6cc(NC(=O)c7nccn7C)cn6C)cn5C)cn4CCCCCCn4nnc5c4-c4ccccc4N(C(=O)CCC(=O)NCCOCCOCCCCCCCl)Cc4ccccc4-5)cn3C)cn2C)cn1C [Compound B-375] | > 1000 nM | > 1000 nM |
| CN1CC(C2CCN(C(=O)CCNC(=O)c3nc(NC(=O)c4cc(NC(=O)CCNC(=O)c5nc(NC(=O)CCCNC(=O)c6cc(NC(=O)c7nc(NC(=O)CCNC(=O)c8cc(NC(=O)c9nccn9C)cn8C)cn7C)cn6C)cn5C)cn4C)cn3C)CC2)C1 [Compound B-143] | 100 to 500 nM | 100 to 500 nM |
| Cn1cc(NC(=O)c2nc(NC(=O)CCNC(=O)c3cc(NC(=O)c4nccn4C)cn3C)cn2C)cc1C(=O)NCCCC(=O)Nc1cn(C)c(C(=O)NCCC(=O)Nc2cc(C(=O)Nc3cn(C)c(C(=O)NCCC(=O)NCCOCCN4CCC(C#CC#CC5CCN(C(=O)OC(C)(C)C)CC5)CC4)n3)n(C)c2)n1 [Compound B-19] | < 100 nM | 100 to 500 nM |
| Cn1cc(NC(=O)c2nc(NC(=O)CCNC(=O)c3cc(NC(=O)c4nccn4C)cn3C)cn2C)cc1C(=O)NCCCC(=O)Nc1cn(C)c(C(=O)NCCC(=O)Nc2cc(C(=O)Nc3cn(C)c(C(=O)NCCC(=O)N4CCN(CCOCCOCCOCCOCCNC(=O)OC(C)(C)C)CC4)n3)n(C)c2)n1 [Compound B-27] | 100 to 500 nM | 100 to 500 nM |
| CN(CCCN)CCCNC(=O)c1cc(NC(=O)CCNC(=O)c2nc(NC(=O)CCCNC(=O)c3cc(NC(=O)c4nc(NC(=O)CCNC(=O)c5cc(NC(=O)c6nccn6C)cn5C)cn4C)cn3CCCCCCN=[N+]=[N-])cn2C)cn1C [Compound B-358] | > 1000 nM | > 1000 nM |
| Cn1cc(NC(=O)c2nc(NC(=O)CCNC(=O)c3cc(NC(=O)c4nccn4C)cn3C)cn2C)cc1C(=O)NCCCC(=O)Nc1cn(C)c(C(=O)NCCC(=O)Nc2cc(C(=O)Nc3cn(C)c(C(=O)NCC#Cc4ccccc4)n3)n(C)c2)n1 [Compound B-245] | < 100 nM | < 100 nM |
| CCN(CC)CCCC[C@H](NC(=O)C1CCNCC1)C(=O)NCCOCCOCCOCCOCCOCCNC(=O)CCNC(=O)c1nc(NC(=O)c2cc(NC(=O)CCNC(=O)c3nc(NC(=O)CCCNC(=O)c4cc(NC(=O)c5nc(NC(=O)CCNC(=O)c6cc(NC(=O)c7nccn7C)cn6C)cn5C)cn4C)cn3C)cn2C)cn1C [Compound B-95] | 500 to 1000 nM | > 1000 nM |
| CCCNC(=O)CCNC(=O)c1nc(NC(=O)c2cc(NC(=O)CCNC(=O)c3nc(NC(=O)CCCNC(=O)c4cc(NC(=O)c5nc(NC(=O)CCNC(=O)c6cc(NC(=O)c7nccn7C)cn6C)cn5C)cn4CCOCCNC(C)=O)cn3C)cn2C)cn1C [Compound B-298] | 100 to 500 nM | 100 to 500 nM |
| CCCNC(=O)CCNC(=O)c1nc(NC(=O)c2cc(NC(=O)CCNC(=O)c3nc(NC(=O)CCCNC(=O)c4cc(NC(=O)c5nc(NC(=O)CCNC(=O)c6cc(NC(=O)c7nc(NC=O)cn7C)cn6C)cn5C)cn4C)cn3C)cn2C)cn1C [Compound B-324] | 100 to 500 nM | < 100 nM |
| Cn1cc(NC(=O)c2nc(NC(=O)CCNC(=O)c3cc(NC(=O)c4nccn4C)cn3C)cn2C)cc1C(=O)NCCCC(=O)Nc1cn(C)c(C(=O)NCCC(=O)Nc2cc(C(=O)Nc3cn(C)c(C(=O)NCCC(=O)N[C@@H](CCCNC(=N)N)C(=O)N[C@@H](CCCNC(=N)N)C(=O)NCCCCN=[N+]=[N-])n3)n(C)c2)n1 [Compound B-150] | > 1000 nM | > 1000 nM |
| CCCNC(=O)CCNC(=O)c1nc(NC(=O)c2cc(NC(=O)CCNC(=O)c3nc(NC(=O)CCCNC(=O)c4cc(NC(=O)c5nc(NC(=O)CCNC(=O)c6cc(NC(=O)c7nccn7C)cn6C)cn5C)cn4CCCN=[N+]=[N-])cn3C)cn2C)cn1C [Compound B-271] | < 100 nM | < 100 nM |
| Cn1cc(NC(=O)c2nc(NC(=O)CCNC(=O)c3cc(NC(=O)c4nccn4C)cn3C)cn2C)cc1C(=O)NCCCC(=O)Nc1cn(C)c(C(=O)NCCC(=O)Nc2cc(C(=O)Nc3cn(C)c(C(=O)NCCc4cnc(CNC(=O)OCc5ccccc5)[nH]4)n3)n(C)c2)n1 [Compound B-202] | 100 to 500 nM | < 100 nM |
| CCN(CC)CCCC[C@@H](NC(C)=O)C(=O)Nc1ccc(OCCOCCOCCNC(=O)CCNC(=O)c2nc(NC(=O)c3cc(NC(=O)CCNC(=O)c4nc(NC(=O)CCCNC(=O)c5cc(NC(=O)c6nc(NC(=O)CCNC(=O)c7cc(NC(=O)c8nccn8C)cn7C)cn6C)cn5C)cn4C)cn3C)cn2C)cc1 [Compound B-148] | > 1000 nM | 100 to 500 nM |
| CN(CCCNC(=O)c1cccc(C(=O)O)c1)CCCNC(=O)c1nc(NC(=O)c2cc(NC(=O)CCNC(=O)c3nc(NC(=O)CCCNC(=O)c4cc(NC(=O)c5nc(NC(=O)CCNC(=O)c6cc(NC(=O)c7nccn7C)cn6C)cn5C)cn4CCCCCCN=[N+]=[N-])cn3C)cn2C)cn1C [Compound B-233] | 100 to 500 nM | 100 to 500 nM |
| CC(Nc1cc(C(=O)NCCC(=O)Nc2cn(C)c(C(=O)Nc3cc(C(=O)NCCCC(=O)Nc4cn(C)c(C(=O)NCCC(=O)Nc5cc(C(=O)Nc6cn(C)c(C(=O)NCCC(=O)NCCOCCOCCOCCOCCOCCN)n6)n(C)c5)n4)n(C)c3)n2)n(C)c1)c1nccn1C (centres unmarked) [Compound B-77] | 100 to 500 nM | 100 to 500 nM |
| CCCCCNC(=O)CCNC(=O)c1nc(NC(=O)c2cc(NC(=O)CCNC(=O)c3nc(NC(=O)CCCNC(=O)c4cc(NC(=O)c5nc(NC(=O)CCNC(=O)c6cc(NC(=O)c7nccn7C)cn6C)cn5C)cn4C)cn3C)cn2C)cn1C [Compound B-39] | < 100 nM | < 100 nM |
| COCCOCCOCCOCCOCCOCCNC(=O)CCNC(=O)c1nc(NC(=O)c2cc(NC(=O)CCNC(=O)c3nc(NC(=O)CCCNC(=O)c4cc(NC(=O)c5nc(NC(=O)CCNC(=O)c6cc(NC(C)c7nccn7C)cn6C)cn5C)cn4C)cn3C)cn2C)cn1C (centres unmarked) [Compound B-78] | 100 to 500 nM | 100 to 500 nM |
| Cn1cc(NC(=O)c2nc(NC(=O)CCNC(=O)c3cc(NC(=O)c4nccn4C)cn3C)cn2C)cc1C(=O)NCCCC(=O)Nc1cn(C)c(C(=O)NCCC(=O)Nc2cc(C(=O)Nc3cn(C)c(C(=O)NCCC(=O)N4CC=C(C#CC5CCNCC5)CC4)n3)n(C)c2)n1 [Compound B-348] | 500 to 1000 nM | 100 to 500 nM |
| Cn1cc(NC(=O)c2nc(NC(=O)CCNC(=O)c3cc(NC(=O)c4nccn4C)cn3C)cn2C)cc1C(=O)NCCCC(=O)Nc1cn(C)c(C(=O)NCCC(=O)Nc2cc(C(=O)Nc3cn(C)c(C(=O)NCCC(=O)NCCCN4CCCCC4)n3)n(C)c2)n1 [Compound B-38] | 100 to 500 nM | > 1000 nM |
| CC#CC#CC1CCN(C(=O)CCNC(=O)c2nc(NC(=O)c3cc(NC(=O)CCNC(=O)c4nc(NC(=O)CCCNC(=O)c5cc(NC(=O)c6nc(NC(=O)CCNC(=O)c7cc(NC(=O)c8nccn8C)cn7C)cn6C)cn5C)cn4C)cn3C)cn2C)CC1 [Compound B-381] | 100 to 500 nM | 100 to 500 nM |
| CC(C)C(=O)N1CCC(C#CC#CC2CCN(CCOCCOCCOCCNC(=O)CCNC(=O)c3nc(NC(=O)c4cc(NC(=O)CCNC(=O)c5nc(NC(=O)CCCNC(=O)c6cc(NC(=O)c7nc(NC(=O)CCNC(=O)c8cc(NC(=O)c9nccn9C)cn8C)cn7C)cn6C)cn5C)cn4C)cn3C)CC2)CC1 [Compound B-122] | 100 to 500 nM | 100 to 500 nM |
| Cn1cc(NC(=O)c2nccn2C)cc1C(=O)NCCC(=O)Nc1cn(C)c(C(=O)Nc2cc(C(=O)NCC[C@@H](N)C(=O)Nc3cn(C)c(C(=O)NCCC(=O)Nc4cc(C(=O)Nc5cn(C)c(C(=O)CCCC(=O)N6CCCCC6)n5)n(C)c4)n3)n(C)c2)n1 [Compound B-406] | 100 to 500 nM | > 1000 nM |
| Cn1cc(NC(=O)c2nc(NC(=O)CCNC(=O)c3cc(NC(=O)c4nccn4C)cn3C)cn2C)cc1C(=O)NCCCC(=O)Nc1cn(C)c(C(=O)NCCC(=O)Nc2cc(C(=O)Nc3cn(C)c(C(=O)NCCCNCC#Cc4ccccc4)n3)n(C)c2)n1 [Compound B-247] | < 100 nM | < 100 nM |

Source: US20250368628A1, “METHODS AND COMPOUNDS FOR MODULATING INHERITED GENETIC DISEASES” (Design Therapeutics, Inc., priority 2022, published 2025)
